Measurements: patent US9382222B2, “Benzyl sulfonamide derivatives as RORc modulators” (Genentech, Inc., priority 2012, dated 2016)

Biological target: T1, RORc ligand binding domain (Homo sapiens, UniProt P51449)
T1 construct: host or cells: E. coli
T1 sequence (P51449 269-508 limits assumed): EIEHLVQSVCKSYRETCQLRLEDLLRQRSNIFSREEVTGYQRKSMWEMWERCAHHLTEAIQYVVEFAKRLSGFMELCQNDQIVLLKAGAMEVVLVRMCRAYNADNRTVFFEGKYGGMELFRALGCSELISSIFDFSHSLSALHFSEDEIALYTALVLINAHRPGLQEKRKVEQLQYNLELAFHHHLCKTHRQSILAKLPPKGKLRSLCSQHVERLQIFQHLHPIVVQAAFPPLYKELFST
Assay: In Vitro RORc Ligand Binding Assay
Settings: displacement of 25-[3H]hydroxycholesterol (6 nM), 0.6 ug/mL RORc receptor, 3 h at 25° C.
Experimental: In Vitro RORc Ligand Binding Assay This assay was used to determine a compound's potency in inhibiting activity of RORc by determining, Kiapp, IC50, or percent inhibition values. […] On day of the assay, 100 uL of 0.05% CHAPS (in deionized H2O) was added to all wells of the GFB Unifilter plate and allowed soak for 1 h. A wash buffer of 50 mM HEPES (pH 7.4), 150 mM NaCl, and 5 mM MgCl2 was prepared to wash the filter plate. To prepare an assay buffer, BSA was added to the wash buffer to reach 0.01% and DTT was added to reach 1 mM. […] The 20× compound stocks were diluted in DMSO with Assay Buffer 4-fold to reach 5× the final test concentration in 25% DMSO (10 uL compound+30 uL Assay Buffer). Solutions were mixed by aspiration several times with a pipette set on 50 uL volume. For the assay, 10 uL of 5× compound stock solutions in 25% DMSO were added to the assay plate in duplicate. For two point screening, 10 mM stock compound solutions were diluted in DMSO to obtain 200 uM (20× the high test concentration) and then diluted 10-fold further to reach 20 uM (20× the low test concentration). The 20× stocks were diluted 4-fold with Assay Buffer (10 uL compound+30 uL Assay Buffer) to reach 5× the test concentrations (50 uM and 5 uM) and 10 uL were added to two assay plates for the duplicate wells. […] Add 20 uL to all wells to reach 6 nM final concentration in the assay. […] Stock receptor solution was diluted in assay buffer to obtain 1.5 ug/mL in Assay Buffer. 20 uL was added to all wells. For No Receptor samples, 20 uL Assay Buffer was substituted for receptor solution. […] Following addition to the wells, the plates were incubated 3 h at 25° C. Using a Packard Filtermate Harvester, the filter plate were washed 4 times following transfer of the incubated samples. Plates were dry-filtered completely (2 h at 50° C. or overnight at room temperature). 50 uL Microscint 0 was added to all wells and read on Topcount protocol Inverted. […] For NSB wells, 1 uM 25-hydroxycholesterol was also present.

| IC50 | SMILES |
| --- | --- |
| 0.102 µM | CC(C)CN(Cc1ccc(OC(F)(F)F)cc1)S(=O)(=O)c1ccc(N2CCN(S(C)(=O)=O)CC2)cc1 [Compound 64, N-Isobutyl-4-(4-methanesulfonyl-piperazin-1-yl)-N-(4-trifluoromethoxy-benzyl)-benzenesulfonamide] |
| 0.079 µM | COc1ccc(CN(CC(C)C)S(=O)(=O)c2ccc(N3CCN(S(C)(=O)=O)CC3)cc2)cc1 [Compound 66, N-Isobutyl-4-(4-methanesulfonyl-piperazin-1-yl)-N-(4-methoxy-benzyl)-benzenesulfonamide] |
| 0.087 µM | CC(=O)N1CCN(c2ccc(S(=O)(=O)N(Cc3ccc(Cl)cc3)CC(C)C)cc2)CC1 [Compound 67, 4-(4-Acetyl-piperazin-1-yl)-N-(4-chloro-benzyl)-N-isobutyl-benzenesulfonamide] |
| 0.02 µM | CC(C)CN(Cc1ccccc1C(F)(F)F)S(=O)(=O)c1ccc(N2CCN(S(C)(=O)=O)CC2)cc1F [Compound 69, 2-Fluoro-N-isobutyl-4-(4-methanesulfonyl-piperazin-1-yl)-N-(2-trifluoromethyl-benzyl)-benzenesulfonamide] |
| 0.083 µM | CC(C)CN(Cc1ccc(OC(F)F)cc1)S(=O)(=O)c1ccc(N2CCN(S(C)(=O)=O)CC2)cc1 [Compound 72, N-(4-Difluoromethoxy-benzyl)-N-isobutyl-4-(4-methanesulfonyl-piperazin-1-yl)-benzenesulfonamide] |
| 0.023 µM | CC(C)CN(Cc1ccccc1C(F)(F)F)S(=O)(=O)c1ccc(N2CCN(S(=O)(=O)N(C)C)CC2)cc1 [Compound 73, 4-{4-[Isobutyl-(2-trifluoromethyl-benzyl)-sulfamoyl]-phenyl}-piperazine-1-sulfonic acid dimethylamide] |
| 0.008 µM | CC(C)CN(Cc1ccccc1C(F)(F)F)S(=O)(=O)c1ccc(N2CCN(S(C)(=O)=O)CC2)c(F)c1 [Compound 75, 3-Fluoro-N-isobutyl-4-(4-methanesulfonyl-piperazin-1-yl)-N-(2-trifluoromethyl-benzyl)-benzenesulfonamide] |
| 0.031 µM | CC(=O)N1CCN(c2ccc(S(=O)(=O)N(Cc3ccccc3C(F)(F)F)C3CCC3)cc2)CC1 [Compound 76, 4-(4-Acetyl-piperazin-1-yl)-N-cyclobutyl-N-(2-trifluoromethyl-benzyl)-benzenesulfonamide] |
| 0.025 µM | CN(C)S(=O)(=O)N1CCN(c2ccc(S(=O)(=O)N(Cc3ccccc3C(F)(F)F)C3CCC3)cc2)CC1 [Compound 77, 4-{4-[Cyclobutyl-(2-trifluoromethyl-benzyl)-sulfamoyl]-phenyl}-piperazine-1-sulfonic acid dimethylamide] |
| 0.023 µM | C=C(c1ccccc1)N(CC(C)C)S(=O)(=O)c1ccc(N2CCN(S(C)(=O)=O)CC2)cc1 [Compound 78, N-Isobutyl-4-(4-methanesulfonyl-piperazin-1-yl)-N-(1-phenyl-vinyl)-benzenesulfonamide] |
| 0.055 µM | CN(C)S(=O)(=O)N1CCN(c2ccc(S(=O)(=O)N(Cc3ccccc3C(F)(F)F)CC(F)(F)F)cc2)CC1 [Compound 79, 4-{4-[(2,2,2-Trifluoro-ethyl)-(2-trifluoromethyl-benzyl)-sulfamoyl]-phenyl}-piperazine-1-sulfonic acid dimethylamide] |
| 0.087 µM | CC(=O)N1CCN(c2ccc(S(=O)(=O)N(Cc3ccccc3C(F)(F)F)CC(F)(F)F)cc2)CC1 [Compound 80, 4-(4-Acetyl-piperazin-1-yl)-N-(2,2,2-trifluoro-ethyl)-N-(2-trifluoromethyl-benzyl)-benzenesulfonamide] |
| 0.11 µM | CC(=O)N1CCN(c2ccc(S(=O)(=O)N(Cc3ccccc3C(F)(F)F)C(C)(C)C)cc2)CC1 [Compound 81, 4-(4-Acetyl-piperazin-1-yl)-N-tert-butyl-N-(2-trifluoromethyl-benzyl)-benzenesulfonamide] |
| 0.051 µM | CN(C)S(=O)(=O)N1CCN(c2ccc(S(=O)(=O)N(Cc3ccccc3C(F)(F)F)C(C)(C)C)cc2)CC1 [Compound 82, 4-{4-[tert-Butyl-(2-trifluoromethyl-benzyl)-sulfamoyl]-phenyl}-piperazine-1-sulfonic acid dimethylamide] |
| 0.024 µM | CC(C)CN(Cc1ccccc1C(F)(F)F)S(=O)(=O)c1ccc(N2CCC(C(N)=O)CC2)cc1 [Compound 83, 1-{4-[Isobutyl-(2-trifluoromethyl-benzyl)-sulfamoyl]-phenyl}-piperidine-4-carboxylic acid amide] |
| 0.006 µM | CC(C)CN(Cc1ccccc1C(F)(F)F)S(=O)(=O)c1ccc(NC2CCN(S(C)(=O)=O)CC2)cc1 [Compound 84, N-Isobutyl-4-(1-methanesulfonyl-piperidin-4-ylamino)-N-(2-trifluoromethyl-benzyl)-benzenesulfonamide] |
| 0.116 µM | CN(C)S(=O)(=O)N1CCN(c2ccc(S(=O)(=O)N(Cc3ccccc3C(F)(F)F)CC(F)F)cc2)CC1 [Compound 85, 4-{4-[(2,2-Difluoro-ethyl)-(2-trifluoromethyl-benzyl)-sulfamoyl]-phenyl}-piperazine-1-sulfonic acid dimethylamide] |
| 0.07 µM | CC(=O)N1CCN(c2ccc(S(=O)(=O)N(Cc3ccccc3C(F)(F)F)C3(C)CCC3)cc2)CC1 [Compound 86, 4-(4-Acetyl-piperazin-1-yl)-N-(1-methyl-cyclobutyl)-N-(2-trifluoromethyl-benzyl)-benzenesulfonamide] |
| 0.039 µM | CC(=O)N1CCN(c2ccc(S(=O)(=O)N(Cc3ccccc3C(F)(F)F)CC(C)(C)C)cc2)CC1 [Compound 88, 4-(4-Acetyl-piperazin-1-yl)-N-(2,2-dimethyl-propyl)-N-(2-trifluoromethyl-benzyl)-benzenesulfonamide] |
| 0.009 µM | CS(=O)(=O)N1CCC(Oc2ccc(S(=O)(=O)N(Cc3ccccc3C(F)(F)F)C3CCC3)cc2)CC1 [Compound 89, N-Cyclobutyl-4-(1-methanesulfonyl-piperidin-4-yloxy)-N-(2-trifluoromethyl-benzyl)-benzenesulfonamide] |
| 0.011 µM | CC(C)CN(Cc1ccc(OC(F)(F)F)cc1)S(=O)(=O)c1ccc(NC2CCN(S(C)(=O)=O)CC2)cc1 [Compound 90, N-Isobutyl-4-(1-methanesulfonyl-piperidin-4-ylamino)-N-(4-trifluoromethoxy-benzyl)-benzenesulfonamide] |
| 0.01 µM | CC(C)CN(Cc1ccc(Cl)cc1)S(=O)(=O)c1ccc(NC2CCN(S(C)(=O)=O)CC2)cc1 [Compound 91, N-(4-Chloro-benzyl)-N-isobutyl-4-(1-methanesulfonyl-piperidin-4-ylamino)-benzenesulfonamide] |
| 3.1 µM | CC(C)CN([C@@H](CO)c1ccccc1)S(=O)(=O)c1ccc(N2CCN(S(C)(=O)=O)CC2)cc1 [Compound 92, N-((R)-2-Hydroxy-1-phenyl-ethyl)-N-isobutyl-4-(4-methanesulfonyl-piperazin-1-yl)-benzenesulfonamide] |
